Assay results: patent publication US11952584B2, “Functional peptides having antimicrobial activity against phytopathogenic microorganisms” (TOYOTA JIDOSHA KABUSHIKI KAISHA, priority 2019, dated 2024)
Values joined by “and” are separate entries in the source; they are usually repeats but may differ in a detail not shown here. Identical values can stand only once. “Also recorded” adds a separate entry of the source. Like-named read-outs stand apart in the source and are kept apart here. Ends that are not written are not given here.

B1: mdfimlaaaivkesfiflligllaaILLSLEIFERKFSRSVWYYGFPAFSERTRKFWRIWKGK TS (peptide, listed as Solanum lycopersicum)
chain: MDFIMLAAAIVKESFIFLLIGLLAAILLSLEIFERKFSRSVWYYGFPAFSERTRKFWRIWKGKTS
notes: peptide of 65 amino acid residues from tomato xylem sap

How the values were obtained:
[1] = tested on: Pseudomonas syringae pv. tomato
[2] = tested on: Ralstonia solanacearum; conditions: peptide 100 μM, 28° C. a whole day and night; for Inhibitory rate Ralstonia solanacearum: relative to water; for OD600 Ralstonia solanacearum: water control 2.6
[3] = tested on: Xanthomonas oryzae pv. oryzae; conditions: for Inhibitory rate Xanthomonas oryzae pv. oryzae / OD600 Xanthomonas oryzae pv. oryzae: peptide 100 μM, 28° C. a whole day and night; for Inhibitory rate Xanthomonas oryzae pv. oryzae: relative to water; for OD600 Xanthomonas oryzae pv. oryzae: water control 2.1
[4] = tested on: Erwinia carotovora subsp. carotovora
[5] = tested on: Colletotrichum destructivum; format: cell-based; conditions: for Plate antimicrobial activity test Colletotrichum destructivum (level): 25° C., 1 day or 2 days
[6] = tested on: Fusarium oxysporum; format: cell-based
[7] = tested on: Botrytis cinerea; test: Botrytis cinerea leaf inoculation test (tomato leaf); format: in vivo; conditions: for inhibitory effects against Botrytis cinerea (in words): tomato leaf inoculation test, not shown in the figures
Procedure: In the present example, a suspension comprising Botrytis cinerea and a peptide to be tested was dropped on a plant leaf, and lesions were then observed by visual inspection to evaluate the antimicrobial activity of the tested peptide. First, the pores of Botrytis cinerea were suspended in a potato dextrose broth (PDB) to result in a spore concentration of 5×10^5 spores/ml, so as to prepare a PDB suspension spore solution. Subsequently, a peptide to be tested (TsORF18-2) was added to the PDB suspension spore solution, so that the final concentration of the peptide to be tested became 0 μM, 1 μM, 10 μM or 100 μM. It is to be noted that, as peptides to be tested, TsORF18 (full length) and TsORF18-40 a.a. were also used in the same manner as that of TsORF18-2. TsORF18 (full length) was dissolved in DMSO and was then used. On the other hand, TsORF18-2 and TsORF18-40 a.a were each dissolved in Milli-Q water and were then used. Thereafter, 10 μl each of the PDB suspension spore solution containing the peptide to be tested was dropped on the front side and the back side of the leaf of tomato (variety name: “Ponte Rosa”). In this condition, incubation was carried out at 25° C. for 2 days. Thereafter, the front and back sides of the leaf were observed by visual inspection.

[8] = tested on: Colletotrichum destructivum; test: Colletotrichum destructivum leaf inoculation test (Chinese cabbage leaf); format: in vivo; conditions: 25° C.; for lesion of Colletotrichum destructivum (in words): 4 days (FIG. 3); for Leaf inoculation test Chinese cabbage/Colletotrichum destructivum: 4 days, lesions by visual inspection
From the text: In the present example, a suspension comprising Colletotrichum destructivum and a peptide to be tested was dropped on a plant leaf, and lesions were then observed by visual inspection to evaluate the antimicrobial activity of the tested peptide. First, the pores of Colletotrichum destructivum were suspended in water to result in a spore concentration of 5×10^5 spores/ml, so as to prepare a water suspension of spores. Subsequently, peptides to be tested (TsORF18 (full length), TsORF18-40 a.a., and TsORF18-2) were each added to the water suspension of spores, so that the final concentration of the peptides to be tested became 0 μM, 1 μM, 10 μM or 100 μM. Thereafter, 10 μl each of the water suspension of spores containing the peptide to be tested was dropped on the front side and the back side of the leaf of Chinese cabbage (variety name: “Kigokoro 85”). In this condition, incubation was carried out at 25° C. for 4 days. Thereafter, the front and back sides of the leaf were observed by visual inspection.

[9] = tested on: Botrytis cinerea; format: cell-based; conditions: for Plate antimicrobial activity test Botrytis cinerea (level): 25° C., 1 day or 2 days
[10] = tested on: Colletotrichum orbiculare; format: cell-based; conditions: for Plate antimicrobial activity test Collectotrichum orbiculare (level): 25° C., 1 day or 2 days
[11] = tested on: Pyricularia oryzae; format: cell-based; conditions: for Plate antimicrobial activity test Pyricularia oryzae (level): 25° C., 1 day or 2 days
[12] = plate test, microscopic observation (FIG. 1), concentration not given

Molecule	OD600 Pseudomonas syringae pv. tomato [1]	Inhibitory rate Pseudomonas syringae pv. tomato ([1]; 100 μM) [%]	Inhibitory rate Ralstonia solanacearum [2] [%]	OD600 Ralstonia solanacearum [2]	Inhibitory rate Xanthomonas oryzae pv. oryzae [3] [%]	OD600 Xanthomonas oryzae pv. oryzae [3]	OD600 Erwinia carotovora subsp. cartovora [4]	Inhibitory rate Erwinia carotovora subsp. cartovora ([4]; 100 μM) [%]	Plate antimicrobial activity test Colletotrichum destructivum (level) ([5]; peptide 1 μM)	Plate antimicrobial activity test Colletotrichum destructivum (level) ([5]; peptide 10 μM)	Plate antimicrobial activity test Colletotrichum destructivum (level) ([5]; peptide 100 μM)	Plate antimicrobial activity test Fusarium oxysporum (level) [6]	inhibitory effects against Botrytis cinerea (in words) [7]	Leaf inoculation test Chinese cabbage/Colletotrichum destructivum ([8]; peptide 1 μM)	Leaf inoculation test Chinese cabbage/Colletotrichum destructivum ([8]; peptide 10 μM)	Leaf inoculation test Chinese cabbage/Colletotrichum destructivum ([8]; peptide 100 μM)	Plate antimicrobial activity test Botrytis cinerea (level) ([9]; peptide 1 μM)	Plate antimicrobial activity test Botrytis cinerea (level) ([9]; peptide 10 μM)	Plate antimicrobial activity test Botrytis cinerea (level) ([9]; peptide 100 μM)	other results
ILLSLEIFERKFSRSVWYYGFPAFSERTRKFWRIWKGKTS [TsORF18-40aa]	1.9	25.8	−7.7	2.8	−5.8	2.2	2.2	−18.1	0	0	3	3 and 0	not observed	Δ	∘	∘	0	0	3	lesion of Colletotrichum destructivum (in words) ([8]; concentration of 10 μM or 100 μM): not observed
YYGFPAFSERTRKFWRIWKGKT [TsORF18-2]	1.9	25.3	13.8	2.2	90.1	0.2	2.6	−39.2	0	2	3	3 and 1 and 0	–	∘	∘	∘	1	3	3	inhibition of growth of Pseudomonas syringae pv. tomato (in words) ([1]; 100 μM): could inhibit the growth; inhibition of growth of Xanthomonas oryzae pv. oryzae (in words) ([3]; summary of Table 4, 100 μM): could inhibit the growth; Plate antimicrobial activity test Collectotrichum orbiculare (level) ([10]; peptide 1 μM): 0; Plate antimicrobial activity test Collectotrichum orbiculare (level) ([10]; peptide 10 μM): 1; Plate antimicrobial activity test Collectotrichum orbiculare (level) ([10]; peptide 100 μM): 3; inhibition of germination of Colletotrichum orbiculare (in words) [10, 12]: completely inhibited; also recorded: could inhibit germination; inhibition of germination of Colletotrichum destructivum (in words) [5, 12]: completely inhibited; also recorded: could inhibit germination; inhibition of germination of Fusarium oxysporum (in words) [6]: completely inhibited; also recorded: could inhibit germination; lesion of Botrytis cinerea (in words) ([7]; 100 μM, tomato leaf, 25° C., 2 days (FIG. 2)): not observed; Leaf inoculation test Tomato/Botrytis cinerea ([7]; peptide 100 μM, tomato leaf, 25° C., 2 days, lesions by visual inspection): ∘; Plate antimicrobial activity test Pyricularia oryzae (level) ([11]; peptide 1 μM): 0; Plate antimicrobial activity test Pyricularia oryzae (level) ([11]; peptide 10 μM): 0; Plate antimicrobial activity test Pyricularia oryzae (level) ([11]; peptide 100 μM): 3; inhibition of germination of Pyricularia oryzae (in words) [11, 12]: completely inhibited; also recorded: could inhibit germination; lesion of Colletotrichum destructivum (in words) ([8]; any concentration of 1 μM, 10 μM or 100 μM): not observed; inhibition of germination of Botrytis cinerea (in words) [9, 12]: completely inhibited; also recorded: could inhibit germination
B1	2.6	–	−0.9	2.6	6.5	2.0	1.9	–	0	0	1	0	not observed	–	–	–	0	0	0	Inhibitory rate Pseudomonas syringae pv. tomato [1]: −3.1%; Inhibitory rate Erwinia carotovora subsp. cartovora [4]: −3.7%
